Results taken from patent US8778923B2, “GLP-1 receptor modulators” (Receptos, Inc., priority 2011, dated 2014).
pEC50: −log10 of the molar value.

Biological target: T1, GLP-1R (Homo sapiens, UniProt P43220)
T1 construct: host or cells: CRE-bla CHO-K1
Experiment: EC20 GLP-1(9-36) PAM cAMP assay: dose response of compound in the presence of fixed concentration of GLP-1(9-36)
Format: cell-based
Settings: GLP-1R CRE-bla CHO-K1 cells, compound dose response in presence of fixed concentration of GLP-1(9-36)
In short: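 GLP-1R CRE-bla CHO-K1 cells in HBSS/10 mM Hepes/0.1% BSA pH 7.4 with IBMX got a 12-point compound dose response plus fixed EC20 GLP-1(9-36), 30 min at 37 °C. cAMP measured by HitHunter luminescence against a standard curve; EC50 and Emax by non-linear regression.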

T1 sequence (P43220 24-463): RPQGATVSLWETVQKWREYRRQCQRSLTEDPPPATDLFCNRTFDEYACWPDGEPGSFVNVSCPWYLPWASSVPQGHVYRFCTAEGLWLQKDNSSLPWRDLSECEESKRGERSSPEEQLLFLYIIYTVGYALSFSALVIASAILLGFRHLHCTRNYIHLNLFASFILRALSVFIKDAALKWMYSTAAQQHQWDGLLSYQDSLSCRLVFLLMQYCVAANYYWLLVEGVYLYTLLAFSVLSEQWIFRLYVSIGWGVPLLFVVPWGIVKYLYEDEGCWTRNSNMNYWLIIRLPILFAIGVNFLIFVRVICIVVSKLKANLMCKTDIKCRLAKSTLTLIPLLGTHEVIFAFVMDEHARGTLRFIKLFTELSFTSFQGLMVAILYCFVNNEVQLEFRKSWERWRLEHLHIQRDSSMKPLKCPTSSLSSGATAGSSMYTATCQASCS
T1 sequence (P01275 100-127 partner limits assumed): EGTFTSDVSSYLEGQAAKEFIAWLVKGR

SMILES	pEC50
Cc1cccc(-c2cnc(-c3ccc(C[C@H](NC(=O)c4ccc(C(C)(C)C)cc4)C(=O)O)cc3)nc2)c1 [Compound 217]	5.00 to 5.30
CC(C)(C)c1ccc(C(=O)N[C@@H](Cc2ccc(-c3ncc(-c4cccc(-c5ccccc5)c4)cn3)cc2)C(=O)O)cc1 [Compound 218]	5.30 to 5.60
CCCCCCCOc1ccccc1-c1cnc(-c2ccc(C[C@H](NC(=O)c3ccc(C(C)(C)C)cc3)C(=O)O)cc2)nc1 [Compound 220]	5.30 to 5.60
CCOc1ccc(-c2cnc(-c3ccc(C[C@H](NC(=O)c4ccc(C(C)(C)C)cc4)C(=O)O)cc3)nc2)cc1 [Compound 221]	5.30 to 5.60
CC(C)(C)c1ccc(C(=O)N[C@@H](Cc2ccc(-c3ncc(-c4ccc5ccccc5c4)cn3)cc2)C(=O)O)cc1 [Compound 226]	5.60 to 6.10
Cc1ccc(-c2cnc(-c3ccc(C[C@H](NC(=O)c4ccc(C(C)(C)C)cc4)C(=O)O)cc3)nc2)cc1C [Compound 227]	5.30 to 5.60
CCCc1ccc(-c2cnc(-c3ccc(C[C@H](NC(=O)c4ccc(C(C)(C)C)cc4)C(=O)O)cc3)nc2)cc1 [Compound 228]	5.60 to 6.10
Cc1ccc(-c2ccc(-c3cnc(-c4ccc(C[C@H](NC(=O)c5ccc(C(C)(C)C)cc5)C(=O)O)cc4)nc3)cc2)cc1 [Compound 229]	5.60 to 6.10
Cc1cccc(-c2ccc(-c3cnc(-c4ccc(C[C@H](NC(=O)c5ccc(C(C)(C)C)cc5)C(=O)O)cc4)nc3)cc2)c1 [Compound 230]	5.60 to 6.10
CC(C)(C)c1ccc(C(=O)N[C@@H](Cc2ccc(-c3ncc(-c4ccc(COc5ccccc5)cc4)cn3)cc2)C(=O)O)cc1 [Compound 231]	5.00 to 5.30
Cc1cc(-c2cnc(-c3ccc(C[C@H](NC(=O)c4ccc(C(C)(C)C)cc4)C(=O)O)cc3)nc2)ccc1N(C)C [Compound 232]	5.60 to 6.10
CNc1ccc(-c2cnc(-c3ccc(C[C@H](NC(=O)c4ccc(C(C)(C)C)cc4)C(=O)O)cc3)nc2)cc1 [Compound 233]	5.30 to 5.60
CNc1cccc(-c2cnc(-c3ccc(C[C@H](NC(=O)c4ccc(C(C)(C)C)cc4)C(=O)O)cc3)nc2)c1 [Compound 234]	5.00 to 5.30
CC(C)Nc1ccc(-c2cnc(-c3ccc(C[C@H](NC(=O)c4ccc(C(C)(C)C)cc4)C(=O)O)cc3)nc2)cc1 [Compound 235]	5.30 to 5.60
CC(C)(C)c1ccc(C(=O)N[C@@H](Cc2ccc(-c3ncc(-c4ccc5c(c4)CCCN5)cn3)cc2)C(=O)O)cc1 [Compound 236]	5.00 to 5.30
CC(C)(C)c1ccc(C(=O)N[C@@H](Cc2ccc(-c3ncc(-c4ccc5ccccc5c4)cn3)cc2)C(=O)O)s1 [Compound 245]	5.60 to 6.10
Cc1ccc(-c2ccc(-c3cnc(-c4ccc(C[C@H](NC(=O)c5ccc(C(C)(C)C)s5)C(=O)O)cc4)nc3)cc2)cc1 [Compound 246]	5.60 to 6.10

SMILES	pEC50
Cc1cccc(-c2ccc(-c3cnc(-c4ccc(C[C@H](NC(=O)c5ccc(C(C)(C)C)s5)C(=O)O)cc4)nc3)cc2)c1 [Compound 247]	5.60 to 6.10
CC(C)(C)c1ccc(C(=O)N[C@@H](Cc2ccc(-c3ncc(N4CCC(C(C)(C)C)CC4)cn3)cc2)C(=O)O)cc1 [Compound 253, (S)-2-(4-(tert-butyl)benzamido)-3-(4-(5-(4-(tert-butyl)piperidin-1-yl)pyrimidin-2-yl)phenyl)propanoic acid]	5.30 to 5.60
CCCCCCCN1CCN(c2cnc(-c3ccc(C[C@H](NC(=O)c4ccc(C(C)(C)C)cc4)C(=O)O)cc3)nc2)CC1 [Compound 254]	5.60 to 6.10
CCCCCCCn1nnnc1-c1cnc(-c2ccc(C[C@H](NC(=O)c3ccc(C(C)(C)C)cc3)C(=O)O)cc2)nc1 [Compound 255]	5.00 to 5.30
CCCCCCOC1=NCc2cc(-c3cnc(-c4ccc(C[C@H](NC(=O)c5ccc(C(C)(C)C)cc5)C(=O)O)cc4)nc3)ccc21 [Compound 256]	5.00 to 5.30
CC(C)(C)c1ccc(C(=O)N[C@@H](Cc2ccc(-c3ncc(OCc4ccccc4)cn3)cc2)C(=O)O)cc1 [Compound 258]	5.00 to 5.30
CCCCCCCOc1ccc(N2CCN(c3ccc(C[C@H](NC(=O)c4ccc(C(C)(C)C)cc4)C(=O)O)cc3)CC2=O)cc1 [Compound 261]	5.30 to 5.60
CCCCCCCOc1ccc(N2CCN(c3ccc(C[C@H](NC(=O)c4ccc(C(C)(C)C)s4)C(=O)O)cc3)C2=O)cc1 [Compound 262]	5.30 to 5.60
CCCCCCCOc1ccc(N2CCC(Nc3ccc(C[C@H](NC(=O)c4ccc(C(C)(C)C)cc4)C(=O)O)cc3)CC2)cc1 [Compound 263]	5.60 to 6.10
CCCCCCCOc1ccc(C2CCN(c3ccc(C[C@H](NC(=O)c4ccc(C(C)(C)C)cc4)C(=O)O)cc3)CC2)cc1 [Compound 264]	5.60 to 6.10
CCCCCCCOc1ccc(C2CCN(c3ccc(C[C@H](NC(=O)c4ccc(C(C)(C)C)cc4)C(=O)O)cc3)C2)cc1 (stereo partly shown) [Compound 265]	5.00 to 5.30
CC(C)(C)c1ccc(C(=O)N[C@@H](Cc2ccc(N3CCN(c4ccc(-c5ccccc5)cc4)CC3)cc2)C(=O)O)cc1 [Compound 266]	5.00 to 5.30
CCCCCCCOc1ccc(N2CCN(c3ccc(C[C@H](NC(=O)c4ccc(C(C)(C)C)cc4)C(=O)O)cc3)CC2)cc1 [Compound 267]	5.60 to 6.10
CCCCCCCOc1ccc(N2CCCN(c3ccc(C[C@H](NC(=O)c4ccc(C(C)(C)C)cc4)C(=O)O)cc3)CC2)cc1 [Compound 268]	5.60 to 6.10
CCCCCCCOc1ccc(-c2cnc(-c3ccc(C[C@H](NC(=O)c4ccc(C(C)(C)C)cc4)C(=O)NCC(=O)O)cc3)nn2)cc1 [Compound 276]	5.60 to 6.10
CC(C)(C)c1ccc(-c2ccc(-c3ccc(C[C@H](NC(=O)c4ccc(C(C)(C)C)s4)C(=O)O)cc3)nc2)cc1 [Compound 278]	5.30 to 5.60

Other lines, results leading:

pEC50	SMILES
5.60 to 6.10	CCCCCCCOc1cccc(-c2cnc(-c3ccc(C[C@H](NC(=O)c4ccc(C(C)(C)C)cc4)C(=O)O)cc3)nc2)c1 [Compound 219]
5.60 to 6.10	CCCOc1ccc(-c2cnc(-c3ccc(C[C@H](NC(=O)c4ccc(C(C)(C)C)cc4)C(=O)O)cc3)nc2)cc1 [Compound 222]
5.60 to 6.10	CCCCOc1ccc(-c2cnc(-c3ccc(C[C@H](NC(=O)c4ccc(C(C)(C)C)cc4)C(=O)O)cc3)nc2)cc1 [Compound 223]
5.60 to 6.10	CCCCCOc1ccc(-c2cnc(-c3ccc(C[C@H](NC(=O)c4ccc(C(C)(C)C)cc4)C(=O)O)cc3)nc2)cc1 [Compound 224]
> 6.10	CCCCCCOc1ccc(-c2cnc(-c3ccc(C[C@H](NC(=O)c4ccc(C(C)(C)C)cc4)C(=O)O)cc3)nc2)cc1 [Compound 225, (S)-2-(4-(tert-butyl)benzamido)-3-(4-(5-(4-(hexyloxy)phenyl)pyrimidin-2-yl)phenyl)propanoic acid]
5.60 to 6.10	CCCCOc1ccc(-c2cnc(-c3ccc(C[C@H](NC(=O)c4ccc(C(C)(C)C)s4)C(=O)O)cc3)nc2)cc1 [Compound 237]
5.60 to 6.10	CCCCCOc1ccc(-c2cnc(-c3ccc(C[C@H](NC(=O)c4ccc(C(C)(C)C)s4)C(=O)O)cc3)nc2)cc1 [Compound 238]
5.60 to 6.10	CCCCCCOc1ccc(-c2cnc(-c3ccc(C[C@H](NC(=O)c4ccc(C(C)(C)C)s4)C(=O)O)cc3)nc2)cc1 [Compound 239]
5.30 to 5.60	CC(C)(C)c1ccc(C(=O)N[C@@H](Cc2ccc(-c3ncc(-c4ccc(C(F)(F)F)cc4)cn3)cc2)C(=O)O)s1 [Compound 240]
5.60 to 6.10	CC(C)Oc1ccc(-c2cnc(-c3ccc(C[C@H](NC(=O)c4ccc(C(C)(C)C)s4)C(=O)O)cc3)nc2)cc1 [Compound 241]
5.60 to 6.10	CC(C)c1ccc(-c2cnc(-c3ccc(C[C@H](NC(=O)c4ccc(C(C)(C)C)s4)C(=O)O)cc3)nc2)cc1 [Compound 242]
5.60 to 6.10	CC(C)Cc1ccc(-c2cnc(-c3ccc(C[C@H](NC(=O)c4ccc(C(C)(C)C)s4)C(=O)O)cc3)nc2)cc1 [Compound 243]
5.30 to 5.60	CC(C)(C)c1ccc(C(=O)N[C@@H](Cc2ccc(-c3ncc(-c4ccc(OC5CC5)cc4)cn3)cc2)C(=O)O)s1 [Compound 244]
5.00 to 5.30	CCCCCCCCCCOc1ccc(-c2cnc(-c3ccc(C[C@H](NC(=O)c4ccc(C(C)(C)C)s4)C(=O)O)cc3)nc2)cc1 [Compound 249, (S)-2-(5-(tert-butyl)thiophene-2-carboxamido)-3-(4-(5-(4-(decyloxy)phenyl)-pyrimidin-2-yl)phenyl)propanoic acid]
5.60 to 6.10	CCCCCCCCCCCCOc1ccc(-c2cnc(-c3ccc(C[C@H](NC(=O)c4ccc(C(C)(C)C)s4)C(=O)O)cc3)nc2)cc1 [Compound 250]
5.00 to 5.30	CCCCCCCCCCCCCCOc1ccc(-c2cnc(-c3ccc(C[C@H](NC(=O)c4ccc(C(C)(C)C)s4)C(=O)O)cc3)nc2)cc1 [Compound 251]
5.00 to 5.30	CCCCCCCCCCCCCCCCOc1ccc(-c2cnc(-c3ccc(C[C@H](NC(=O)c4ccc(C(C)(C)C)s4)C(=O)O)cc3)nc2)cc1 [Compound 252]
5.60 to 6.10	CCCCCCOc1ccc(-c2cnc(-c3ccc(C[C@H](NC(=O)c4ccc(C(C)(C)C)cc4)C(=O)O)cc3)nc2)cn1 [Compound 257]
5.60 to 6.10	CCCCCCCCOc1ccc(-c2cnc(-c3ccc(C[C@H](NC(=O)c4ccc(C(C)(C)C)s4)C(=O)O)cc3)nc2)cc1 [Compound 259]
> 6.10	CCCCCCCCCOc1ccc(-c2cnc(-c3ccc(C[C@H](NC(=O)c4ccc(C(C)(C)C)s4)C(=O)O)cc3)nc2)cc1 [Compound 260]
5.60 to 6.10	CCCCCCCOc1ccc(-c2ccc(-c3ccc(C[C@H](NC(=O)c4ccc(C(C)(C)C)cc4)C(=O)O)cc3)nc2)cc1 [Compound 269]
5.60 to 6.10	CCCCCCCOc1ccc(-c2ncc(-c3ccc(C[C@H](NC(=O)c4ccc(C(C)(C)C)cc4)C(=O)O)cc3)cn2)cc1 [Compound 271]
5.60 to 6.10	CCCCCCCOc1ccc(-c2cnc(-c3ccc(C[C@H](NC(=O)c4ccc(C(C)(C)C)cc4)C(=O)O)cc3)cn2)cc1 [Compound 272]
5.60 to 6.10	CCCCCCCOc1ccc(-c2cnc(-c3ccc(C[C@H](NC(=O)c4ccc(C(C)(C)C)cc4)C(=O)O)cc3)nn2)cc1 [Compound 274]
> 6.10	CCCCCCCOc1ccc(-c2ccc(-c3ccc(C[C@H](NC(=O)c4ccc(C(C)(C)C)s4)C(=O)O)cc3)nc2)cc1 [Compound 277]
